This note sets out measurements from doi:10.1101/2020.07.20.212142v1 (bioRxiv, 2020).

One series has as its system NIH 3T3 cells. The series is described as follows: NIH 3T3 peptide permeation by live-cell confocal microscopy. Particulars: live NIH 3T3 cells; 5 µM TAMRA-labeled peptide, Opti-mem + 2% FBS, 3 hours, 37°C. Format: cell-based, mouse.
In series [1] the test system is dechorionated Drosophila melanogaster hosts. Format: in vivo. Particulars: dechorionated-only hosts; 20 µM peptide overnight, room temperature.

“cyclo[Glut-MRKRHASRRE-K*]-K(5-TAMRA) (sidechain bridge or staple)”: the “permeation by confocal fluorescence microscopy” value (from here on “permeation”) in the series with NIH 3T3 cells was “substantially greater permeation”.
For TAMRA-GEGEGEG, the “permeation” value in the series with NIH 3T3 cells is “no permeation was detected”.
Regarding TAMRA-RRRRRRRRR, in series [1], the “partial loss of viability observed (in words)” value is “sole exception”. Also, the “permeation” value in the series on NIH 3T3 cells is listed as “spare punctuate fluorescence”.
Take TAMRA-MRKRHASRREK: the “permeation” value in the series with NIH 3T3 cells was “spare punctuate fluorescence”.
